In PMC3185582 (Viruses, 2010):
Where two headings read alike, the source gives them in different places.

Key:
cowpox virus = type: cell-based
vaccinia virus [1] = type: cell-based
[2] = 12 daily doses of 300 mg/kg
variola virus [3] = conditions: cynomolgus monkey, in vivo, cited from earlier work
CYP2E1 = CYP2E1 (Homo sapiens, UniProt P05181); test: in vitro
[4] = tested on: vaccinia virus in BSC-40 cell monolayers; type: cell-based
orthopoxviruses = tested on: orthopoxviruses; set-up: species or system mice; conditions: mouse, in vivo
ectromelia virus = conditions: read-out: EC50 for inhibition of viral replication; cited from earlier work
cytochrome P450 (CYP) = conditions: 10 μM (3,700 ng/mL)
[5] = mouse, in vivo
[6] = top dose 2000 mg/kg
Ectromelia = conditions: mouse, in vivo, cited from earlier work
in vivo [7] = conditions: BALB/c, mouse, 30 mg/kg
[8] = not given; remark: listed apart in the source
[9] = for increase in AUC values (accumulation): 28 day repeat dose study
[10] = not given; remark: listed apart in the source
[11] = mouse, in vivo; remark: listed apart in the source
[12] = tested on: vaccinia virus in BSC-40 cell monolayers; conditions: 10 μM, 5 pfu/cell; ref Chen et al. [48]; cited from earlier work
Monkeypox = conditions: in vivo, cited from earlier work
CYP2C19 = CYP2C19 (Homo sapiens, UniProt P33261); test: in vitro
[13] = 300 mg/kg, repeat dose studies
Vaccinia [14] = conditions: mouse, in vivo, cited from earlier work
[15] = single oral dose, tidal volume
in vivo [16] = conditions: Sprague-Dawley, rat, po, 30 mg/kg
unrelated viruses = conditions: read-out: EC50 for inhibition of viral replication; cited from earlier work
in vivo [17] = conditions: BALB/c, mouse
[18] = not given; remark: listed apart in the source
[19] = rat, mouse and dog microsomes
CYP2C8 = CYP2C8 (Homo sapiens, UniProt P10632); test: in vitro
[20] = methanol, ethanol and acetonitrile
[21] = tested on: selected cell lines from mouse, rabbit, monkey, and humans; conditions: cited from earlier work
Vaccinia [22] = conditions: mouse, in vivo, po, 100 mg/kg
vaccinia virus [23] = conditions: CPE assay; read-out: EC50 for inhibition of viral replication; cited from earlier work
poxvirus = conditions: mouse, in vivo; cited from earlier work
in vivo [24] = conditions: both, cynomolgus, monkey
[25] = tested on: monkeypox virus clinical isolates; conditions: cited from earlier work
CYP1A2 = CYP1A2 (Homo sapiens, UniProt P05177); test: in vitro
[26] = not given; remark: listed apart in the source
in vivo [27] = conditions: dog
vero and BSC40 cells = conditions: ST-246 treatment, 50 uM; unpublished work [21]
variola virus [28] = tested on: variola virus; set-up: species or system cynomolgus macaques; conditions: cynomolgus monkey, in vivo
in vivo [29] = conditions: cynomolgus monkey
Cowpox = conditions: mouse, in vivo, cited from earlier work
[30] = monkey or human microsomes
CYP2B6 = CYP2B6 (Homo sapiens, UniProt P20813); test: in vitro
monkeypox virus [31] = tested on: monkeypox virus; set-up: species or system prairie dogs; conditions: dog, in vivo
p37 with Rab9 and TIP47 = conditions: cited from earlier work
Rabbitpox = conditions: rabbit, in vivo, cited from earlier work
[32] = tested on: variola virus clinical isolates; conditions: cited from earlier work
monkeypox virus [33] = conditions: cynomolgus monkey, in vivo, cited from earlier work
monkeypox virus [34] = tested on: monkeypox virus; set-up: species or system cynomolgus macaques; conditions: cynomolgus monkey, in vivo
[35] = by 96 hours after oral administration

CYP2E1, sequence (P05181 whole entry): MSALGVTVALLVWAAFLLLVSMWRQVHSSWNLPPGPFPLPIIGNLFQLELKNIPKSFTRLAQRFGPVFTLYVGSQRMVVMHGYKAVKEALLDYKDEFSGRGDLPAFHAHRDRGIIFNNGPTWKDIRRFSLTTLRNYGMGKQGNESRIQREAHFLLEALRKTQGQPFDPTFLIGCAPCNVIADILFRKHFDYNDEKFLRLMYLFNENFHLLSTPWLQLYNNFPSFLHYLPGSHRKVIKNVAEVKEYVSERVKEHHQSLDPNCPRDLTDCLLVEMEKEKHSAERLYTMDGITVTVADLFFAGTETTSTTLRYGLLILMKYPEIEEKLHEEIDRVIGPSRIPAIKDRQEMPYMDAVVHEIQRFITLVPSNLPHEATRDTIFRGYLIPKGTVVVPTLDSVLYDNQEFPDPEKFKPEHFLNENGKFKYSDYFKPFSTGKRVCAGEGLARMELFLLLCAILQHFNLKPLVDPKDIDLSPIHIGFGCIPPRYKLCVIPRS
CYP2C8, sequence (P10632 whole entry): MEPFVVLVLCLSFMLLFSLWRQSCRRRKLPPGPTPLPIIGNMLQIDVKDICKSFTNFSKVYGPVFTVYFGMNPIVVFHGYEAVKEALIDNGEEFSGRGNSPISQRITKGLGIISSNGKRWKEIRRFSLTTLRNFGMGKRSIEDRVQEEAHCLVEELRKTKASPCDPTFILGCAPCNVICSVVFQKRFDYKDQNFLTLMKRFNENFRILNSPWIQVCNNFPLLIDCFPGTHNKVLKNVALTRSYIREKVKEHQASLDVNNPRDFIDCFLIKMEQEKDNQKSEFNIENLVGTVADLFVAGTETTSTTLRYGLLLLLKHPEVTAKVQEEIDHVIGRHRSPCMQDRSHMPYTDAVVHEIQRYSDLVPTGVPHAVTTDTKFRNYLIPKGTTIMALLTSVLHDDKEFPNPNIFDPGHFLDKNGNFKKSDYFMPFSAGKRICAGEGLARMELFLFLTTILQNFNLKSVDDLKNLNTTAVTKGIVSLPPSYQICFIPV
CYP1A2, sequence (P05177 whole entry): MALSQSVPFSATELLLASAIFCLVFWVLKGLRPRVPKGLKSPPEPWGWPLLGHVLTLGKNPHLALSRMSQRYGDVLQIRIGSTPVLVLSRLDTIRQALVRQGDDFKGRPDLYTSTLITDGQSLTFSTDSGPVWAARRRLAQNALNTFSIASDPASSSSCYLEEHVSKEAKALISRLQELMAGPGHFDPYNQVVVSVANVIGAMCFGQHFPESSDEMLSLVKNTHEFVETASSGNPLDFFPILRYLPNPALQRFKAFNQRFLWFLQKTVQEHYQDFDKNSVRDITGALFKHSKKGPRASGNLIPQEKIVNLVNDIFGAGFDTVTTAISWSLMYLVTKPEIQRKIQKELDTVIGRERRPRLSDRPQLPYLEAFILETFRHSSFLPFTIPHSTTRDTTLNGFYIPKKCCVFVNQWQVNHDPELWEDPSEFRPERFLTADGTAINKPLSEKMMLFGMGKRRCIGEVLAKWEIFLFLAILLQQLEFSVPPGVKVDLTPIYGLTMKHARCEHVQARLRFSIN
CYP2B6, sequence (P20813 whole entry): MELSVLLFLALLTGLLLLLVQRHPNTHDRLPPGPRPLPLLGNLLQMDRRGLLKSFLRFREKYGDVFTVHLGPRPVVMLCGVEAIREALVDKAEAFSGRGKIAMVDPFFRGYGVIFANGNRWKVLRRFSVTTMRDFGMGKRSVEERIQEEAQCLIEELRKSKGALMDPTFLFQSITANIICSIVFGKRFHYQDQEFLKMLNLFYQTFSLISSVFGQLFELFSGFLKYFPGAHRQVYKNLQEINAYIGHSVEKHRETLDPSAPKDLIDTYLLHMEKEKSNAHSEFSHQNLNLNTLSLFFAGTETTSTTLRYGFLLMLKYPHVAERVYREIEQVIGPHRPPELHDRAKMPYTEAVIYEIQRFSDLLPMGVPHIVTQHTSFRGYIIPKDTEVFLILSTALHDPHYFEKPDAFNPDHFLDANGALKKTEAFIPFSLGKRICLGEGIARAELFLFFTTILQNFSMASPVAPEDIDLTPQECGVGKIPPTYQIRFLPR
CYP2C19, sequence (P33261 whole entry): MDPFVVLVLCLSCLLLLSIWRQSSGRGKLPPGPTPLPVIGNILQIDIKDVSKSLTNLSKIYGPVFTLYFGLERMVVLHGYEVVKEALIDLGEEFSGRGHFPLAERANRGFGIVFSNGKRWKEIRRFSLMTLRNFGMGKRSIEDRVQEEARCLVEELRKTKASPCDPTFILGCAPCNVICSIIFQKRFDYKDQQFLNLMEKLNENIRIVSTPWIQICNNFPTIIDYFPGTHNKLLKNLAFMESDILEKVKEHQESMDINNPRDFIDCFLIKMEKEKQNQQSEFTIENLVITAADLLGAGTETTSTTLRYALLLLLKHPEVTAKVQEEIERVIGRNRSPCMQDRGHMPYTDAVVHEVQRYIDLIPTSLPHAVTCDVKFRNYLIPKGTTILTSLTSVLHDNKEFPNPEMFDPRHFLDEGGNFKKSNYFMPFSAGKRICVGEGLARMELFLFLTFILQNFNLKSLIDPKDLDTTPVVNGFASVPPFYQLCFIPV

For `O=C(NN1C(=O)C2C3C=CC(C4CC34)C2C1=O)c1ccc([N+](=O)[O-])cc1` (centres unmarked) [4-nitrophenyl], the “fold more potent than the 4-dimethylaminophenyl analog” value (cowpox virus) was 100 fold and the “fold more potent than the 4-dimethylaminophenyl analog” value (vaccinia virus [1]) was 100 fold.

For `O=C(NN1C(=O)[C@@H]2[C@@H]3C=C[C@@H]([C@H]4C[C@@H]34)[C@@H]2C1=O)c1ccc(C(F)(F)F)cc1` [ST-246, Tecovirimat], the “electroencephalograms and seizure thresholds” value [2] was “no evidence of altered electroencephalograms or lowered seizure thresholds”, the “radiolabel in the milk” value (nursing dams) was less than 1% and the “radiolabel in the placenta” value (pregnant mice) was “only very low levels”. The “Optimal oral dose mg/kg, s.i.d.” value (variola virus [3]; po) was 10 mg/kg, the Time of treatment (variola virus [3]) was 24 h.p.i. (100%) and the “Time of treatment (% efficacy)” value (variola virus [3]) was 24 h.p.i. (100%). The CYP induction (CYP 2B6) was “induction was observed”, the inhibition at 300 µM (CYP2E1) was less than 50% and the plaque formation [4] was “inhibits”. The “latest treatment initiation for full protection” value (orthopoxviruses) was no more than 72 hours post-infection, the optimal dosing period (orthopoxviruses; 100 mg/kg) was “greater than seven days” and the “optimal once per day oral dose for protective efficacy” value (orthopoxviruses; po) was 100 mg/kg. For the same compound, the EC50 (ectromelia virus) was 70 nM, the “cytochrome P450 (CYP) induction” value (cytochrome P450 (CYP)) was “no significant” and the “fertility, fetal resorptions, fetal abnormalities or toxicity” value [5] was “no evidence”. The “behavioral or other functional changes” value [6] was “did not elicit any”, the genotoxicity (bacterial) was “not genotoxic” and the “Optimal oral dose mg/kg, s.i.d.” value (Ectromelia; po) was 100 mg/kg. The Optimal dose duration (Ectromelia) was >5 days (100%), the “Optimal dose duration (% efficacy)” value (Ectromelia) was >5 days (100%) and the Time of treatment (Ectromelia) was 72 h.p.i. (100%). For the same compound, the “Time of treatment (% efficacy)” value (Ectromelia) was 72 h.p.i. (100%), the bioavailability (in vivo [7]) was roughly 40% and the clinical observations ([8]; 300 mg/kg) was “ataxia was observed four hours post dose in one female NHP”. For the same compound, the NOEL ([8]; 3 Month study) was 300 mg/kg, the NOEL ([8]; 28 Day repeat dose study) was 300 mg/kg and the “multiple-dose NOEL” value ([8]; monkey) was 300 mg/kg/day. The clinical observations ([8]; single dose 1000 mg/kg) was “This was also observed”, the clinical observations ([8]; single oral dose 2000 mg/kg, male and female) was “decreased activity and ataxia” and the “increase in AUC values (accumulation)” value ([9]; 1000 mg/kg) was “approximately 25%”. For the same compound, the “increase in AUC values (accumulation)” value ([9]; 2000 mg/kg) was “approximately 50%”, the terminal elimination half-life ([9]; once a day dosing) was “approximately four” and the plasma protein binding [10] was “moderate to high”. For the same compound, the “chromosomal damage or bone marrow toxicity” value [11] was “did not cause”, the “extracellular virus (CEV and EEV) formation” value [12] was “inhibits” and the “Optimal oral dose mg/kg, s.i.d.” value (Monkeypox; po) was 100 mg/kg. For the same compound, the Time of treatment (Monkeypox) was 72 h.p.i. (100%), the “Time of treatment (% efficacy)” value (Monkeypox) was 72 h.p.i. (100%) and the inhibition at 300 µM (CYP2C19) was less than 50%. For the same compound, the QTc [13] was “no prolongation”, the “Optimal oral dose mg/kg, s.i.d.” value (Vaccinia [14]; po) was 100 mg/kg and the Optimal dose duration (Vaccinia [14]) was >5 days (100%]. For the same compound, the “Optimal dose duration (% efficacy)” value (Vaccinia [14]) was >5 days (100%], the “no observable effect level (NOEL)” value [15] was 2000 mg/kg and the “metabolism by cytochrome P450 isozymes” value (cytochrome P450 isozymes) was “not metabolized to any significant degree”. The genotoxicity (mammalian cell) was “not genotoxic”, the bioavailability (in vivo [16]; female) was 33% and the bioavailability (in vivo [16]; male) was 90%. The EC50 (unrelated viruses) was greater than 40000 nM, the NOAEL at 3 months (in vivo [17]; 1000 mg/kg) was 1000 mg/kg and the MTD (in vivo [17]; 2000 mg/kg) was 2000 mg/kg. For the same compound, the MTD at 28 days (in vivo [17]; 2000 mg/kg) was 2000 mg/kg, the NOAEL at 28 days (in vivo [17]; 2000 mg/kg) was 2000 mg/kg and the maternal toxicity ([18]; Segment II study, highest dose 100 mg/kg) was “some maternal toxicity”. The “fertility, fetal resorptions, fetal abnormalities or toxicity” value ([18]; rabbit, in vivo) was “no evidence”, the “cleavage liberating 4-trifluoromethylbenzoic acid” value [19] was “small amounts of ST-246 were cleaved” and the inhibition at 300 µM (CYP2C8) was less than 50%. For the same compound, the “solubility in organic solvents” value [20] was “very soluble”, the Caco-2 membrane permeability (Caco-2) was “good” and the CC50 [21] was greater than 50000 nM. The “protection from systemic disease” value (Vaccinia [22]) was “protects mice from systemic disease”, the EC50 (vaccinia virus [23]) was 10 nM and the “protection from lethal infection” value (poxvirus) was “protect”. The NOAEL (in vivo [24]) was 2000 mg/kg, the “inhibition of clinical isolates in cell culture” value [25] was “inhibited” and the inhibition at 300 µM (CYP1A2) was less than 50%. For the same compound, the “time to nearly complete elimination of radioactivity” value ([26]; after oral administration) was no more than 96 h, the “radioactivity eliminated in the urine” value [26, 35] was 24% and the “radioactivity eliminated through the feces” value [26, 35] was “approximately 72%”. For the same compound, the MTD (in vivo [27]) was 30 mg/kg, the growth of cells (vero and BSC40 cells) was “not affected” and the “lesion numbers compared to placebo-treated animals” value (variola virus [28]) was “reduced lesion numbers”. It also gave a clearance (in vivo [29]; both, iv, 1 mg/kg) of roughly 18.3 mL/min/kg, a bioavailability (in vivo [29]; fasted) of roughly 25% and a bioavailability (in vivo [29]; fed state) of roughly 50%. The “Optimal oral dose mg/kg, s.i.d.” value (Cowpox; po) was 100 mg/kg, the Optimal dose duration (Cowpox) was >7 days (93%] and the “Optimal dose duration (% efficacy)” value (Cowpox) was >7 days (93%]. The Time of treatment (Cowpox) was 48 h.p.i. (93%), the “Time of treatment (% efficacy)” value (Cowpox) was 48 h.p.i. (93%) and the CYP induction (CYP 2C19) was “induction was observed”. For the same compound, the cleavage metabolites [30] was “not seen”, the inhibition at 300 µM (CYP2B6) was less than 50% and the protection from death (monkeypox virus [31]) was 100%. For the same compound, the “interaction of p37 with Rab9 and TIP47” value (p37 with Rab9 and TIP47) was “blocks”, the “Optimal oral dose mg/kg, s.i.d.” value (Rabbitpox; po) was 40 mg/kg and the Time of treatment (Rabbitpox) was 48 h.p.i. (100%). The “Time of treatment (% efficacy)” value (Rabbitpox) was 48 h.p.i. (100%), the “inhibition of clinical isolates in cell culture” value [32] was “inhibited” and the “Optimal oral dose mg/kg, s.i.d.” value (monkeypox virus [33]; po) was 3 mg/kg. For the same compound, the Time of treatment (monkeypox virus [33]) was 96h.p.i. (100%), the “Time of treatment (% efficacy)” value (monkeypox virus [33]) was 96h.p.i. (100%) and the protection from death (monkeypox virus [33]) was 100%. The “protection from lethal infection” value (monkeypox virus [33]) was 100%, the “protection from lethal infection” value (monkeypox virus [34]) was “protected animals from lethal infection” and the “protection from lethal infection, latest administration” value (monkeypox virus [34]) was “as late as five days post-inoculation”.
